Measured values from Sander's compilation of Henry's law constants (doi:10.1246/bcsj.55.1054).

Test: Henry solubility constant Hcp at 298.15 K (mol/(m3 Pa))
Conditions: reference: Sanemasa et al. (1982)

Henry solubility constant Hcp | SMILES
0.0013 | CCc1ccccc1 [ethylbenzene]
0.00089 | CC(C)c1ccccc1 [(2-propyl)-benzene]
0.00095 | CCCc1ccccc1 [propylbenzene]
0.0024 | Cc1cccc(C)c1C [1,2,3-trimethylbenzene]
0.0016 | Cc1ccc(C)c(C)c1 [1,2,4-trimethylbenzene]
0.0017 | c1ccccc1 [benzene]

SMILES | Henry solubility constant Hcp
Cc1ccccc1C [1,2-dimethylbenzene] | 0.0019
Cc1cccc(C)c1 [1,3-dimethylbenzene] | 0.0014
Cc1ccccc1 [methylbenzene] | 0.0015
Cc1ccc(C)cc1 [1,4-dimethylbenzene] | 0.0013
Cc1cc(C)cc(C)c1 [1,3,5-trimethylbenzene] | 0.0011
